From patent publication EP4467141A1, “PYRAZOLO-QUINOLINES AS SELECTIVE INHIBITORS OF GENOTOXIC STRESS-INDUCED IKK/NF- KB PATHWAYS FOR CANCER THERAPY” (Max-Delbrück-Centrum für Molekulare Medizin in der …, priority 2023, dated 2024)

Legend:
Assay in all cases: Kinase panel study
Assay type in all cases: biochemical
Settings in all cases: read-out: Percentage of inhibition; for inhibition at 1 µM: 1000nM; for inhibition at 10 µM: 10000nM
[1] = target: T1, LRRK2 I2020T (Homo sapiens, UniProt Q5S007, I2020T)
T1 construct: purchased Thermo Fisher Scientific
Outline: (§1)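 Kinase inhibition was determined by a contract provider in cell-free ZLyte or Adapta assays. Results are expressed as % inhibition at 10 or 1 µM.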

[2] = target: T2, PAK2 (PAK65) (Homo sapiens, UniProt Q13177)
T2 construct: purchased Thermo Fisher Scientific
Outline: as §1

[3] = target: T3, PAK6 (Homo sapiens, UniProt Q9NQU5)
T3 construct: purchased Thermo Fisher Scientific
Outline: as §1

[4] = target: T4, PIM3 (Homo sapiens, UniProt Q86V86)
T4 construct: purchased Thermo Fisher Scientific
Outline: as §1

[5] = target: T5, JAK3 (Homo sapiens, UniProt P52333)
T5 construct: purchased Thermo Fisher Scientific
T5 sequence (P52333 1-1124): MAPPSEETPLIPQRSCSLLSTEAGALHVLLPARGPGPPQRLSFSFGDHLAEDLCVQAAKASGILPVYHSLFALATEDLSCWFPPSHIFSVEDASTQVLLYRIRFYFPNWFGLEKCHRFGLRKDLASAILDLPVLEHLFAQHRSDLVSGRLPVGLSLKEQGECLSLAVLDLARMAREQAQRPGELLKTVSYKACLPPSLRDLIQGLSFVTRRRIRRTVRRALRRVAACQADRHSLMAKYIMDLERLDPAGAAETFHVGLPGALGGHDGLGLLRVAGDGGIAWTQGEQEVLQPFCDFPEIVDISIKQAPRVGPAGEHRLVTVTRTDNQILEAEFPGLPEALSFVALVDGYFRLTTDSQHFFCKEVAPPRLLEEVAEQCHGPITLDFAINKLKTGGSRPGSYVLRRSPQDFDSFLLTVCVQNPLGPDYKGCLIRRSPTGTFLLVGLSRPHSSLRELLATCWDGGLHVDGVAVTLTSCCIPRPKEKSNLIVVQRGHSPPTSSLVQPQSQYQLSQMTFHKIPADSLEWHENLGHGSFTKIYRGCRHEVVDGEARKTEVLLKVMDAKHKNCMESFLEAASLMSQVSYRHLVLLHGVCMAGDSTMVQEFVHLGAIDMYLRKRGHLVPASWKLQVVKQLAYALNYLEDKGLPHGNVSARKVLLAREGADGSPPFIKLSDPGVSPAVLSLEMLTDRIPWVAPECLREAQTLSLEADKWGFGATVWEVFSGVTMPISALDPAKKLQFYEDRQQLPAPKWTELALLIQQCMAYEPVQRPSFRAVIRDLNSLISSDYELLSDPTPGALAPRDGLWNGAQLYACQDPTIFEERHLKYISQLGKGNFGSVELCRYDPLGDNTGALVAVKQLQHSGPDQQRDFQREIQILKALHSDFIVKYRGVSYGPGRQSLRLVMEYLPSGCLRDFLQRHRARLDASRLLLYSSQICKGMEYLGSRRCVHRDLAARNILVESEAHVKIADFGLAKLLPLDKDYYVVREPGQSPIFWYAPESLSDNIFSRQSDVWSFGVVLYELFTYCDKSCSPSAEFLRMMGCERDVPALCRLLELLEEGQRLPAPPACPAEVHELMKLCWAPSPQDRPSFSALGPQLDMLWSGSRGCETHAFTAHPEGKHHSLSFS
Outline: as §1

[6] = target: T6, RET V804L (Homo sapiens, UniProt P07949, V804L)
T6 construct: purchased Thermo Fisher Scientific
Outline: as §1

[7] = target: T7, ZAP70 (Homo sapiens, UniProt P43403)
T7 construct: purchased Thermo Fisher Scientific
T7 sequence (P43403 1-619): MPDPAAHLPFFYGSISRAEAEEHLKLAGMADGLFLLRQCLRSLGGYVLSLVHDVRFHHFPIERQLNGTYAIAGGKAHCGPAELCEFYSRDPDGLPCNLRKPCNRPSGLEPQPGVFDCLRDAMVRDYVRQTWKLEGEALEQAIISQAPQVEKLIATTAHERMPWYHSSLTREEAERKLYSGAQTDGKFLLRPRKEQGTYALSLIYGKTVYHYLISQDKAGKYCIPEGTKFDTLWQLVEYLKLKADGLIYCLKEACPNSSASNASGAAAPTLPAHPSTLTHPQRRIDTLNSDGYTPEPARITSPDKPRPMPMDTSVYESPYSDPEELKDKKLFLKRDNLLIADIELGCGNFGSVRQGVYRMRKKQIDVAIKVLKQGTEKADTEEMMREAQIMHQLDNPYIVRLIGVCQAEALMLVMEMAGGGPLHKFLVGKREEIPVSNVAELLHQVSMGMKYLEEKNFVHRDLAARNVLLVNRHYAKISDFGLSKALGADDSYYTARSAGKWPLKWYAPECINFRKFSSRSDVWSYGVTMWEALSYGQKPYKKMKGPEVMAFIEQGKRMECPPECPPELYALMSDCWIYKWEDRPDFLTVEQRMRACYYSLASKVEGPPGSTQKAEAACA
Outline: as §1

[8] = target: T8, KIT V559D (Homo sapiens, UniProt P10721, V559D)
T8 construct: purchased Thermo Fisher Scientific
Outline: as §1

T2 sequence (Q13177 whole entry): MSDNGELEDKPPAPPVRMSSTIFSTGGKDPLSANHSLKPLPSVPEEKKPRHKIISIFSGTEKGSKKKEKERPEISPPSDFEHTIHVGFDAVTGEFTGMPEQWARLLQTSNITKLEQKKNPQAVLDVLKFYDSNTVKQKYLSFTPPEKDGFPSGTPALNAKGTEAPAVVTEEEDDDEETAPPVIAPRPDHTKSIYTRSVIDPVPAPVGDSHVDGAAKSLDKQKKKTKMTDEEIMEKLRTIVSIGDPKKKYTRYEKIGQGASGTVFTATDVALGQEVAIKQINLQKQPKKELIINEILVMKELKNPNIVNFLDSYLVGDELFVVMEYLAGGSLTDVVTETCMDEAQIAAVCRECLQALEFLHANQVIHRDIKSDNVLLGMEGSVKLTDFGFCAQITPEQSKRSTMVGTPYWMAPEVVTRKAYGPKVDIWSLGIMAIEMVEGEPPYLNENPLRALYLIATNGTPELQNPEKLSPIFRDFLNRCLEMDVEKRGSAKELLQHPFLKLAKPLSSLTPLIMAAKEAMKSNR
T6 sequence (P07949 29-1114 V804L): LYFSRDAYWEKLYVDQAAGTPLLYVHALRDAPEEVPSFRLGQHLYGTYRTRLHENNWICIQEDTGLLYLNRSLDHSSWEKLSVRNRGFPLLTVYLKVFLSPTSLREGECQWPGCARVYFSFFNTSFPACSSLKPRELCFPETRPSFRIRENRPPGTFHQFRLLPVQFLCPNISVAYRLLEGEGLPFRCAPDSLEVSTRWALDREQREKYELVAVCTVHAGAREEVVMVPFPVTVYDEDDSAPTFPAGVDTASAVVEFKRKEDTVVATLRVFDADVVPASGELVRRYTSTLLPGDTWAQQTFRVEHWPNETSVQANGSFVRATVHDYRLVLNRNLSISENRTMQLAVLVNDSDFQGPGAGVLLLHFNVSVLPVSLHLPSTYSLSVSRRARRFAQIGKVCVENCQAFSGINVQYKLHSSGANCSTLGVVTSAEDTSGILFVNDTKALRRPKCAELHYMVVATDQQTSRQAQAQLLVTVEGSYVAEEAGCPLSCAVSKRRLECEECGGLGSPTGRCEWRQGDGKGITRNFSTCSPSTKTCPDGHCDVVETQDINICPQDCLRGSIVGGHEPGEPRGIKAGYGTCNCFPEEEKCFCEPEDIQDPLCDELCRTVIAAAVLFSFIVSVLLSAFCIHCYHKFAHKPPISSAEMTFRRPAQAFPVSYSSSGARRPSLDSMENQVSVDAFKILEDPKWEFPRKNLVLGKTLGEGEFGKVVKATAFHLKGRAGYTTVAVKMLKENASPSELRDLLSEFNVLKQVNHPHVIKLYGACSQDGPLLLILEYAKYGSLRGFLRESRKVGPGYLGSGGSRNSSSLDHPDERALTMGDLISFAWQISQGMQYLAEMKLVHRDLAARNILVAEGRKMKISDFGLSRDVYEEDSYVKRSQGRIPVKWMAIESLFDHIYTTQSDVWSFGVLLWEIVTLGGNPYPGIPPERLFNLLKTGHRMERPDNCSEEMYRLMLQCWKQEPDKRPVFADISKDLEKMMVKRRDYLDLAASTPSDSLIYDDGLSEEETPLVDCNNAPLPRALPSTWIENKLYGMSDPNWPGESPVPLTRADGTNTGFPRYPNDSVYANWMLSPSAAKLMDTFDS
T1 sequence (Q5S007 970-2527 I2020T limits assumed): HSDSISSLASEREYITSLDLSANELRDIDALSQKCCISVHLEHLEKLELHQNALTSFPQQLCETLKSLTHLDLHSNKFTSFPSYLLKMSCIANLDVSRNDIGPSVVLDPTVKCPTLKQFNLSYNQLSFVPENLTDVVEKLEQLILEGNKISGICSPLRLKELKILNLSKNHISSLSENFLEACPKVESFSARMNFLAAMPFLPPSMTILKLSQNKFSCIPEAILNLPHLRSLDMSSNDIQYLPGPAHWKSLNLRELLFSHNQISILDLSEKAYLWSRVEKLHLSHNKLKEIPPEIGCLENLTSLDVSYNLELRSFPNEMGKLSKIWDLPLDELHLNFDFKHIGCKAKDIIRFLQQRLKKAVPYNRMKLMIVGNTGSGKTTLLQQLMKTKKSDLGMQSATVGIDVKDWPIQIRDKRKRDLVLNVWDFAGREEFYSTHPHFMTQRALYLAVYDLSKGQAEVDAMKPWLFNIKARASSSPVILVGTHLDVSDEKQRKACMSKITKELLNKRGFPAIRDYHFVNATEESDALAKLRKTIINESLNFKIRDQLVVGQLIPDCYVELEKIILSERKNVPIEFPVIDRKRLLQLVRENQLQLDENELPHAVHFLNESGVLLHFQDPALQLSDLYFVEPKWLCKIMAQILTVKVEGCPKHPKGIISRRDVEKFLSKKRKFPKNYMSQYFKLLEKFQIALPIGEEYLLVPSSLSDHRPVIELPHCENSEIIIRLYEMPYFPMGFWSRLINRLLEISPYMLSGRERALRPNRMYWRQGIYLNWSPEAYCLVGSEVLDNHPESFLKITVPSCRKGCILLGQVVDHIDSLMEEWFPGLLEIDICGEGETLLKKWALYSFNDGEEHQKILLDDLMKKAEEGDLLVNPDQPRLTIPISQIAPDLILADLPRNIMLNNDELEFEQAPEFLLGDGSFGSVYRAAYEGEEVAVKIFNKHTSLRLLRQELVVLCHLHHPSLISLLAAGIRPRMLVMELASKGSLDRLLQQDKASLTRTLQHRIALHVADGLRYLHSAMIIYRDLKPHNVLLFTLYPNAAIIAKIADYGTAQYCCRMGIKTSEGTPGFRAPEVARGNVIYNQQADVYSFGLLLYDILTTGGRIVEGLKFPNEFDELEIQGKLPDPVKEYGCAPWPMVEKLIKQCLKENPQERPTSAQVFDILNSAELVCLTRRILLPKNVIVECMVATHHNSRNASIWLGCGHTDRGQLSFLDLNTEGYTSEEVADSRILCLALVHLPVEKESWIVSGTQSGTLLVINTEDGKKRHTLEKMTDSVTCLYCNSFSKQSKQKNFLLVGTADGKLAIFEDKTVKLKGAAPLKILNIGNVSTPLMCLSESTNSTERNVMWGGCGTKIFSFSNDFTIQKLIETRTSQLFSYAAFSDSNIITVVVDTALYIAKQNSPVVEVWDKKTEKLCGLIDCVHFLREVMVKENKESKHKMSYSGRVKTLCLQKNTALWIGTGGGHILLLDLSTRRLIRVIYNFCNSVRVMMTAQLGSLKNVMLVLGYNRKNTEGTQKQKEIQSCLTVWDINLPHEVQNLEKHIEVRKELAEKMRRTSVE
T8 sequence (P10721 26-976 V559D): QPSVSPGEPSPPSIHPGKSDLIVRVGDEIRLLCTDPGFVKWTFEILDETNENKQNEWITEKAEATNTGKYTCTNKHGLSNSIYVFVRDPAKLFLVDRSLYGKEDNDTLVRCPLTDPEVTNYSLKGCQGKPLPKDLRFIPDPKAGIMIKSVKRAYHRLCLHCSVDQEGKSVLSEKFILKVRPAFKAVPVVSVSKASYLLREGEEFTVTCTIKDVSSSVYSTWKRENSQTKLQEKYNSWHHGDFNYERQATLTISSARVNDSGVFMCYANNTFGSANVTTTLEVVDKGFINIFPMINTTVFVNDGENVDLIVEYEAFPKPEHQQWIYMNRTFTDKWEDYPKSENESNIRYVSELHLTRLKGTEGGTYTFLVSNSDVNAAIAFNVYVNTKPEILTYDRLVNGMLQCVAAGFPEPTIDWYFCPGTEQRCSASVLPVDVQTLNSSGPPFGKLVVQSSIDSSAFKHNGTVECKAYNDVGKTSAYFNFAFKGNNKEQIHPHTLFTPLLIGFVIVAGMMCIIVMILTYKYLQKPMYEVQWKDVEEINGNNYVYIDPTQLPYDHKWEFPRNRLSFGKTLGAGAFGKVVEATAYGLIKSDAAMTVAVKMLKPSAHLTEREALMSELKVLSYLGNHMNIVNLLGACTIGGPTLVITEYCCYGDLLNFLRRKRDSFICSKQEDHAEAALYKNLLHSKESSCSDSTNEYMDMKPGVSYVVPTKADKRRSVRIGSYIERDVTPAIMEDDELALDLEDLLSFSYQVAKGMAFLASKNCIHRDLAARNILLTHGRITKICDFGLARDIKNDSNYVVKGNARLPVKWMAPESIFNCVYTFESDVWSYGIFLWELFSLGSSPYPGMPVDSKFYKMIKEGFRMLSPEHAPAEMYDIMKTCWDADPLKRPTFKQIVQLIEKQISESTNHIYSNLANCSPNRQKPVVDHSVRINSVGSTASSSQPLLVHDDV

Row | SMILES | inhibition at 1 µM [1] | inhibition at 10 µM [1] | inhibition at 1 µM [2] | inhibition at 10 µM [2] | inhibition at 1 µM [3] | inhibition at 10 µM [3] | inhibition at 1 µM [4] | inhibition at 10 µM [4] | inhibition at 1 µM [5] | inhibition at 10 µM [5] | inhibition at 1 µM [6] | inhibition at 10 µM [6] | inhibition at 1 µM [7] | inhibition at 10 µM [7] | inhibition at 1 µM [8] | inhibition at 10 µM [8]
1 | COc1ccc2cc3c(N)nn(C(=O)c4cccc(N(C)C)c4)c3nc2c1 [MW05, (3-Amino-7-methoxypyrazolo[3,4-b]quinolin-1-yl)-[3-(dimethylamino)phenyl]methanone] | -3% | 5% | 14% | 4% | 11% | 3% | 11% | 2% | 4% | -6% | 2% | 0% | 15% | 11% | 13% | 15%
2 | COc1ccc2c(c1OC)c(=O)n1c3ccc(O)cc3c3ccnc2c31 [MW01, 5-Hydroxy-10,11-dimethoxy-9H-benzo[c]indolo[3,2,1-ij][1,5]naphthyridin-9-one] | 83% | 90% | 14% | 7% | 5% | -10% | 22% | 42% | 9% | 20% | 15% | 38% | 12% | 16% | 11% | 25%
